From patent US8658698B2, “Insecticidal compounds” (Syngenta Crop Protection, LLC, priority 2008, dated 2014)

Legend:
Format in all cases: in vivo
[1] = system: Spodoptera littoralis (Egyptian Cotton Leafworm); test: Spodoptera littoralis cotton leaf disc spray test; conditions: same protocol, 200 ppm, 3 DAT
Protocol: (§1) This Example illustrates the pesticidal/insecticidal properties of compounds of formula (I). The tests were performed as follows:
Spodoptera littoralis (Egyptian Cotton Leafworm)
(§2) Cotton leaf discs were placed on agar in a 24-well microtiter plate and sprayed with test solutions at an application rate of 200 ppm. After drying, the leaf discs were infested with 5 L1 larvae. The samples were checked for mortality, feeding behavior, and growth regulation 3 days after treatment (DAT). The following compounds gave at least 80% control of Spodoptera littoralis: A2, A6, A8, A9, A10, A11, A13, A15, A19, A20, A22, A25, A27, A29, A31, A33, A35, A41, A50, A55, A60, A65, A73, A88, A92, and A94. Heliothis virescens (Tobacco Budworm): Eggs (0-24 h old) were placed in 24-well microtiter plate on artificial diet and treated with test solutions at an application rate of 200 ppm (concentration in well 18 ppm) by pipetting. After an incubation period of 4 days, samples were checked for egg mortality, larval mortality and growth regulation. The following compounds gave at least 80% control of Heliothis virescens: A2, A3, A4, A5, A6, A7, A9, A10, A11, A13, A15, A19, A20, A22, A25, A26, A27, A28, A29, A31, A32, A33, A35, A38, A40, A41, A43, A46, A55, A59, A60, A65, A69, A70, A71, A73, A74, A75, A77, A79, A80, A82, A86, A88, A89, A90, A92, A94, A96, A98, and A100. Plutella xylostella (Diamond Back Moth): A 24-well microtiter plate (MTP) with artificial diet was treated with test solutions at an application rate of 200 ppm (concentration in well 18 ppm) by pipetting. After drying, the MTP's were infested with L2 larvae (7-12 per well). After an incubation period of 6 days, samples were checked for larval mortality and growth regulation. The following compounds gave at least 80% control of Plutella xylostella: A3, A4, A5, A6, A7, A8, A10, A15, A16, A18, A19, A20, A22, A25, A26, A27, A28, A29, A31, A32, A33, A35, A38, A40, A55, A69, A71, A73, A74, A75, A76, A77, A78, A80, A82, A86, A87, A88, A89, A92, A94, A96, A97, A98, and A99. Diabrotica balteata (Corn Root Worm): A 24-well microtiter plate (MTP) with artificial diet was treated with test solutions at an application rate of 200 ppm (concentration in well 18 ppm) by pipetting. After drying, the MTP's were infested with larvae (L2) (6-10 per well). After an incubation period of 5 days, samples were checked for larval mortality, and growth regulation. The following compounds gave at least 80% control of Diabrotica balteata: A5, A6, A7, A14, A15, A18, A24, A35, A53, A55, A70, A71, A75, A79, A84, A85, A88, A92, A93, A95, A96, A97, A98, A99, A100, A101, A102, A103, and A104. Myzus persicae (Green Peach Aphid): Each well of a 24-well microtiter plate is filled with 0.6 ml 30% sucrose solution, containing 12.5 ppm of the test compounds. The wells are covered with streched parafilm and infested with a mixed population of Myzus persicae. After an incubation period of 6 days, samples are checked for mortality (feeding activity). The following compounds gave at least 80% control of Myzus persicae: A4, A6, A10, A11, A15, A19, A20, A24, A27, A29, A33, A34, A36, A37, A39, A40, A41, A42, A43, A44, A45, A46, A47, A48, A49, A55, A60, and A82. Tetranychus urticae (Two-Spotted Spider Mite): Bean leaf discs on agar in 24-well microtiter plates were sprayed with test solutions at an application rate of 200 ppm. After drying, the leaf discs are infested with mite populations of mixed ages. 8 days later, discs are checked for egg mortality, larval mortality, and adult mortality. The following compounds gave at least 80% control of Tetranychus urticae: A6, A11, A15, A19, A20, A22, A26, A35, A58, and A64.

[2] = system: Heliothis virescens (Tobacco Budworm); test: Heliothis virescens egg test on artificial diet; conditions: same protocol, 200 ppm (18 ppm in well), 4 days
Protocol: as §1, §2

[3] = system: Plutella xylostella (Diamond Back Moth); test: Plutella xylostella larvae test on artificial diet; conditions: same protocol, 200 ppm (18 ppm in well), 6 days
Protocol: as §1, §2

[4] = system: Diabrotica balteata (Corn Root Worm); test: Diabrotica balteata larvae test on artificial diet; conditions: same protocol, 200 ppm (18 ppm in well), 5 days
Protocol: as §1, §2

[5] = system: Myzus persicae (Green Peach Aphid); test: Myzus persicae sucrose solution feeding test; conditions: same protocol, 12.5 ppm, 6 days
Protocol: as §1, §2

[6] = system: Tetranychus urticae (Two-Spotted Spider Mite); test: Tetranychus urticae bean leaf disc spray test; conditions: same protocol, 200 ppm, 8 days
Protocol: as §1, §2

Measured: effect on mortality, feeding behavior, or growth regulation

CCc1cc(C(F)(C(F)(F)F)C(F)(F)C(F)(F)F)cc(C)c1NC(=O)c1ccc(C(=O)Nc2nc3c(C)cccc3s2)c(C)c1 (stereo not drawn) [A62]
no or little effect: [1] | [2] | [3] | [4] | [5] | [6]

CCc1cc(C(F)(C(F)(F)F)C(F)(F)C(F)(F)F)cc(C)c1NC(=O)c1ccc(C(=O)Nc2nnc(C)s2)c(C)c1 (stereo not drawn) [A63]
no or little effect: [1] | [2] | [3] | [4] | [5] | [6]

CCc1cc(C(F)(C(F)(F)F)C(F)(F)C(F)(F)F)cc(C)c1NC(=O)c1ccc(C(=O)Nc2nc(-c3ccc(C)cc3)cs2)c(C)c1 (stereo not drawn) [A66]
no or little effect: [1] | [2] | [3] | [4] | [5] | [6]

CCc1cc(C(F)(C(F)(F)F)C(F)(F)C(F)(F)F)cc(C)c1NC(=O)c1ccc(C(=O)NCCCN2CCCCC2)c(C)c1 (stereo not drawn) [A67]
no or little effect: [1] | [2] | [3] | [4] | [5] | [6]

CCc1cc(C(F)(C(F)(F)F)C(F)(F)C(F)(F)F)cc(C)c1NC(=O)c1ccc(C(=O)NCc2cc(-c3ccc(Cl)cc3)no2)c(C)c1 (stereo not drawn) [A68]
no or little effect: [1] | [2] | [3] | [4] | [5] | [6]

CCc1cc(C(F)(C(F)(F)F)C(F)(F)C(F)(F)F)cc(C)c1NC(=O)c1ccc(C(=O)NC2CC(C)(C)N(C)C(C)(C)C2)c(C)c1 (stereo not drawn) [A72]
no or little effect: [1] | [2] | [3] | [4] | [5] | [6]

CCc1cc(C(F)(C(F)(F)F)C(F)(F)C(F)(F)F)cc(C)c1NC(=O)c1ccc(C(=O)NCc2ccc(C(C)(C)C)cc2)c(C)c1 (stereo not drawn) [A81]
no or little effect: [1] | [2] | [3] | [4] | [5] | [6]
